Test results published in patent US20080181971A1, “Combination Cancer Treatments Comprising Elsamitrucin and Other Agents” (priority 2007, published 2008).

Legend:
[1] = tested on: HCT116 human colon carcinoma; test: HCT116-e256 study: tumor growth delay of subcutaneous HCT116 xenografts in nude mice; type: in vivo; details: for Median TTE (time to endpoint): endpoint 2000 mm^3, control 25.1; for tumor growth delay (TGD): percent of median TTE of untreated group
Description: Tumors were measured twice weekly during the experiment, and each animal was euthanized when its tumor reached the endpoint volume of 2000 mm^3 or on the last day of the study (Day 59), whichever came first.
Treatment outcome was assessed by tumor growth delay (TGD), defined as the difference in median time to endpoint tumor burden in a treatment group compared to a control group.
a. Mice. […] The mice were housed on irradiated ALPHA-Dri® Bed-O'Cobs® Laboratory Animal Bedding in static microisolators on a 12-hour light cycle at 21-22° C. (70-72° F.) and 40-60% humidity. Testing facilities complied with the recommendations of the Guide for Care and Use of Laboratory Animals with respect to restraint, husbandry, surgical procedures, feed and fluid regulation, and veterinary care. The animal care and use program at the testing facility is accredited by AAALAC, which assures compliance with accepted standards for the used and care of laboratory animals.
b. Tumor Implantation. […] On the day of tumor implant, the cells were trypsinized, harvested by centrifugation and resuspended in phosphate buffered saline. Each mouse received 5×10^6 HCT116 tumor cells in 0.2 mL implanted subcutaneously in the right flank, and tumor growth was monitored. […] Tumor volume was calculated using the formula: […]
c. Therapeutic Agents. […] The 0.5 mg/mL dosing solution was prepared by 2-fold dilution in distilled water. Both solutions were prepared fresh for each dose administered.
Dosing solutions of 0.75 and 1.5 mg/mL were formulated fresh for each dose by diluting the stock solution ten-fold with D5W.
d. Treatment Plan. […] Note the routes of administration and schedules detailed in Table 10. All doses were given in volumes of 0.2 mL per 20 g of body weight (10 mL/kg), and were scaled to the body weight of the animal.
e. Endpoint. Tumors were measured twice weekly using calipers. Each animal was euthanized when its tumor reached the endpoint size of 2000 mm^3 or at the conclusion of the study on Day 59, whichever came first. The time to endpoint (TTE) for each mouse was calculated from the following equation: […]
where b is the intercept and m is the slope of the line obtained by linear regression of a log-transformed tumor growth data set. The data set was comprised of the first observation that exceeded the study endpoint volume and the three consecutive observations that immediately preceded the attainment of the endpoint volume. […] Animals classified as NTR (non-treatment-related) deaths due to accident (NTRa) or due to unknown causes (NTRu) were excluded from TTE calculations (and all further analyses). Animals classified as TR (treatment-related) deaths or NTRm (non-treatment-related death due to metastasis) were assigned a TTE value equal to the day of death.
Treatment outcome was evaluated by tumor growth delay (TGD), which is defined as the increase in the median time to endpoint (TTE) in a treatment group compared to the control group:
Treatment may cause partial regression (PR) or complete regression (CR) of the tumor in an animal. […] An animal with a CR response at the termination of a study is additionally classified as a tumor-free survivor (TFS). Regression responses were monitored and recorded.
g. Statistical and Graphical Analyses. The Logrank test was used to analyze the significance of the differences between the TTE values of treated and control groups. Two-tailed statistical analyses were conducted at significance level P=0.05.
Median tumor growth curves show group median tumor volumes as a function of time. When an animal exited the study due to tumor size, the final tumor volume recorded for the animal was included with the data used to calculate the group median tumor volume at subsequent time points. Curves were truncated after 50% of the animals in a group had exited the study, or after the second TR death in a group, whichever came first (see the exception in FIG. 8).

[2] = HCT116-e256 study: toxicity (body weight, treatment-related deaths, clinical signs); type: in vivo, nude mice
From the text: f. Toxicity. Animals were weighed daily for the first five days of the study and then twice weekly. […] Acceptable toxicity is defined as a group mean body-weight loss of less than 20% during the study and not more than one treatment-related (TR) death among ten treated animals. […] A death was classified as TR if attributable to treatment side effects as evidenced by clinical signs and/or necropsy, or may be classified as TR if due to unknown causes during the dosing period or within 10 days of the last dose. A death was classified as an NTR if there is no evidence that death was related to treatment side effects.

[3] = tested on: HCT116 human colon carcinoma; details: i.v., qod x5; cited from earlier work
[4] = i.p., qd x5; cited from earlier work
[5] = Groups 2,4,6,8,10: elsamitrucin 10 mg/kg ip q4d x3, paclitaxel 15 mg/kg iv qod x5, cisplatin 2.7 mg/kg ip qd x5
[6] = Groups 3,5,7,9,11: elsamitrucin 5 mg/kg ip q4d x3, paclitaxel 7.5 mg/kg iv qod x5, cisplatin […] ip qd x5

**Q.** With `CC(=O)O[C@H]1C(=O)[C@@]2(C)[C@H]([C@H](OC(=O)c3ccccc3)[C@]3(O)C[C@H](OC(=O)[C@H](O)[C@@H](NC(=O)c4ccccc4)c4ccccc4)C(C)=C1C3(C)C)[C@]1(OC(C)=O)CO[C@@H]1C[C@@H]2O` [Paclitaxel, paclitaxel] as the compound, how does the “% TGD = [(T − C)/C] × 100” value [1, 5] read?
**A.** Its value is 59%.

**Q.** What about the “No. of CR (complete regression)” value [1, 5] of the same compound?
**A.** Its value is 0.

**Q.** What about the “No. of PR (partial regression)” value [1, 5] of the same compound?
**A.** Its value is 1.

**Q.** What about the “No. of TFS (tumor free survivor)” value [1, 5] of the same compound?
**A.** Its value is 0.

**Q.** What about the “T − C (difference between median TTE of treated versus control group)” value [1, 5] of the same compound?
**A.** The value was 14.7 days.

**Q.** And the “Median TTE (time to endpoint)” value [1, 5]?
**A.** Its value is 39.8 days.

**Q.** What about the “% TGD = [(T − C)/C] × 100” value [1, 6] of the same compound?
**A.** Its value is 22%.

**Q.** And the “No. of CR (complete regression)” value [1, 6]?
**A.** Its value is 0.

**Q.** What about the “No. of PR (partial regression)” value [1, 6] of the same compound?
**A.** Its value is 0.

**Q.** And the “No. of TFS (tumor free survivor)” value [1, 6]?
**A.** The value was 0.

**Q.** And the “T − C (difference between median TTE of treated versus control group)” value [1, 6]?
**A.** Its value is 5.6 days.

**Q.** And the “Median TTE (time to endpoint)” value [1, 6]?
**A.** Its value is 30.7 days.

**Q.** And the partial regression response ([1]; higher dose level, animals of ten)?
**A.** Its partial regression response is 1/10.

**Q.** What about the “Day of Mean BW Nadir” value [2, 5] of the same compound?
**A.** The value was 7 days.

**Q.** And the “Mean BW Nadir (lowest group mean body weight, as % change from Day 1)” value [2, 5]?
**A.** The value was −4.6%.

**Q.** What about the “No. of NTR (non-treatment-related death)” value [2, 5] of the same compound?
**A.** Its value is 0.

**Q.** What about the “No. of TR (treatment-related death)” value [2, 5] of the same compound?
**A.** The value was 0.

**Q.** And the “No. of NTR (non-treatment-related death)” value [2, 6]?
**A.** The value was 0.

**Q.** And the “No. of TR (treatment-related death)” value [2, 6]?
**A.** The value was 0.

**Q.** What about the “optimum therapeutic dose identified in previous studies” value [3] of the same compound?
**A.** The value was 30 mg/kg.

**Q.** Which “MTV (n) Day 59 (median tumor volume)” value ([1]; Groups 2,4,6,8,10: elsamitrucin 10 mg/kg ip q4d x3, paclitaxel 15 mg/kg iv qod x5, animals remaining on Day 59, n in brackets) does the source give for `CO[C@@H]1[C@@H](N)[C@@H](O[C@H]2[C@H](Oc3cccc4c(O)c5c(=O)oc6ccc(C)c7c(=O)oc(c34)c5c67)O[C@H](C)[C@H](O)[C@]2(C)O)O[C@H](C)[C@@H]1O` [Elsamitrucin, benzo(h)(1)benzopyrano(5,4,3-cde)(1)ebnzopyran-5,12-dione,10((2-O-(2-amino-2,6-dideoxy-3-O-methyl-alpha-D-galactopyranosyl)-6-deoxy-3-C-methyl-beta-D-galactopyranosyl)oxy)-6-hydroxy-1-methyl] here?
**A.** The value was 88 (1) mm^3.

**Q.** What about the “% TGD = [(T − C)/C] × 100” value [1, 5] of the same compound?
**A.** The value was 8%.

**Q.** And the “No. of CR (complete regression)” value [1, 5]?
**A.** Its value is 0.

**Q.** And the “No. of PR (partial regression)” value [1, 5]?
**A.** The value was 0.

**Q.** What about the “No. of TFS (tumor free survivor)” value [1, 5] of the same compound?
**A.** Its value is 0.

**Q.** And the “T − C (difference between median TTE of treated versus control group)” value [1, 5]?
**A.** The value was 2.0 days.

**Q.** What about the “Median TTE (time to endpoint)” value [1, 5] of the same compound?
**A.** The value was 27.1 days.

**Q.** And the “% TGD = [(T − C)/C] × 100” value [1, 6]?
**A.** The value was 6%.

**Q.** And the “No. of CR (complete regression)” value [1, 6]?
**A.** The value was 0.

**Q.** What about the “No. of PR (partial regression)” value [1, 6] of the same compound?
**A.** Its value is 0.

**Q.** And the “No. of TFS (tumor free survivor)” value [1, 6]?
**A.** The value was 0.

**Q.** And the “T − C (difference between median TTE of treated versus control group)” value [1, 6]?
**A.** The value was 1.4 days.

**Q.** And the “Median TTE (time to endpoint)” value [1, 6]?
**A.** Its value is 26.5 days.

**Q.** And the tumor regressions ([1]; elsamitrucin monotherapy groups, 10 or 5 mg/kg i.p. q4d x3)?
**A.** Its tumor regressions is “No tumor regressions”.

**Q.** And the “Day of Mean BW Nadir” value [2, 5]?
**A.** The value was 7 days.

**Q.** And the “Mean BW Nadir (lowest group mean body weight, as % change from Day 1)” value [2, 5]?
**A.** Its value is −8.4%.

**Q.** What about the “No. of NTR (non-treatment-related death)” value [2, 5] of the same compound?
**A.** Its value is 0.

**Q.** What about the “No. of TR (treatment-related death)” value [2, 5] of the same compound?
**A.** Its value is 0.

**Q.** What about the “Day of Mean BW Nadir” value [2, 6] of the same compound?
**A.** The value was 7 days.

**Q.** What about the “No. of NTR (non-treatment-related death)” value [2, 6] of the same compound?
**A.** The value was 0.

**Q.** What about the “No. of TR (treatment-related death)” value [2, 6] of the same compound?
**A.** Its value is 0.

**Q.** What about the “Mean BW Nadir (lowest group mean body weight, as % change from Day 1)” value ([2]; Groups 3,5,7,9,11: elsamitrucin 5 mg/kg ip q4d x3, paclitaxel 7.5 mg/kg iv qod x5, cisplatin […] ip qd x5, — indicates no decrease in mean body weight was observed) of the same compound?
**A.** Its value is −4.8%.

**Q.** And the “group body weight loss” value ([2]; elsamitrucin 10 mg/kg, in monotherapy and in the combinations)?
**A.** The value was “modest group BW losses”.

**Q.** For `N.N.[Cl][Pt][Cl]` [Cisplatin, cisplatin], which “% TGD = [(T − C)/C] × 100” value [1, 5] is on record?
**A.** The value was 23%.

**Q.** And the “No. of CR (complete regression)” value [1, 5]?
**A.** The value was 0.

**Q.** What about the “No. of PR (partial regression)” value [1, 5] of the same compound?
**A.** Its value is 0.

**Q.** What about the “No. of TFS (tumor free survivor)” value [1, 5] of the same compound?
**A.** Its value is 0.

**Q.** And the “T − C (difference between median TTE of treated versus control group)” value [1, 5]?
**A.** The value was 5.7 days.

**Q.** What about the “Median TTE (time to endpoint)” value [1, 5] of the same compound?
**A.** Its value is 30.8 days.

**Q.** And the “% TGD = [(T − C)/C] × 100” value [1, 6]?
**A.** Its value is 1%.

**Q.** And the “No. of CR (complete regression)” value [1, 6]?
**A.** The value was 0.

**Q.** What about the “No. of PR (partial regression)” value [1, 6] of the same compound?
**A.** Its value is 0.

**Q.** And the “No. of TFS (tumor free survivor)” value [1, 6]?
**A.** Its value is 0.

**Q.** And the “T − C (difference between median TTE of treated versus control group)” value [1, 6]?
**A.** Its value is 0.2 days.

**Q.** And the “Median TTE (time to endpoint)” value [1, 6]?
**A.** The value was 25.3 days.

**Q.** And the “tumor growth delay (TGD)” value ([1]; higher dose level)?
**A.** Its value is 23%.

**Q.** And the “tumor growth delay (TGD)” value ([1]; lower dose level)?
**A.** Its value is 1%.

**Q.** And the “MTD revealed in previous studies” value [4]?
**A.** Its value is 2.7 mg/kg.
